Earlier results in patent publication US20100210719A1, “O-DESMETHYLVENLAFAXINE” (DR. REDDY'S LABORATORIES LTD., priority 2007, published 2010).

Details: inferred from the major DSC endotherm at about 120° C. and Tg onset at 18° C. reported in U.S. Pat. No. 6,673,838

stability of the amorphous form: highly unstable
SMILES: CN(C)CC(c1ccc(O)cc1)C1(O)CCCCC1 (stereo not shown) [desvenlafaxine succinate]
